Assay results taken from PubChem BioAssay (NCI).
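Briefly, cells in 96-well plates were exposed to five compound concentrations for 48 h, and endpoints were estimated by linear interpolation. Abbreviation: GI50, concentration required for 50% inhibition of growth. TGI denotes the concentration required for complete inhibition of growth.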

Columns and labels:
Experiment in all cases: inhibition of tumour cell growth, NCI panel, 48 h
[1] = test system: U251 CNS
[2] = test system: HL-60(TB) leukemia
[3] = test system: SR leukemia
[4] = test system: MDA-MB-231 breast
[5] = test system: NCI-H226 lung
[6] = test system: LOX IMVI melanoma
[7] = test system: A549 NSCLC
[8] = test system: CCRF-CEM leukemia
[9] = test system: SNB-75 CNS
[10] = test system: SF-295 CNS
[11] = test system: HOP-62 NSCLC
[12] = test system: MCF7 breast
[13] = test system: SK-MEL-5 melanoma
[14] = test system: SF-268 CNS
[15] = test system: 786-0 renal
[16] = test system: KM12 colon
[17] = test system: HCT-116 colon
[18] = test system: T-47D breast
[19] = test system: SNB-19 CNS
[20] = test system: NCI-H23 lung
[21] = test system: M14 melanoma
[22] = test system: UO-31 renal
[23] = test system: COLO 205 colon
[24] = test system: OVCAR-3 ovarian
[25] = test system: HT29 colon
[26] = test system: SK-OV-3 ovarian
[27] = test system: A498 renal
[28] = test system: MALME-3M melanoma
[29] = test system: K-562 leukemia
[30] = test system: SN12C renal
[31] = test system: UACC-257 melanoma
[32] = test system: MOLT-4 leukemia
[33] = test system: CAKI-1 renal
[34] = test system: SK-MEL-28 melanoma
[35] = test system: UACC-62 melanoma
[36] = test system: HS 578T breast
[37] = test system: NCI-H522 lung
[38] = test system: OVCAR-5 ovarian
[39] = test system: HCT-15 colon
[40] = test system: NCI/ADR-RES ovarian
[41] = test system: RPMI-8226 leukemia
[42] = test system: NCI-H460 lung
[43] = test system: TK-10 renal
[44] = test system: HOP-92 NSCLC
[45] = test system: IGROV1 ovarian
[46] = test system: SW-620 colon
[47] = test system: SF-539 CNS
[48] = test system: OVCAR-4 ovarian
[49] = test system: OVCAR-8 ovarian
[50] = test system: EKVX NSCLC
[51] = test system: SK-MEL-2 melanoma
[52] = test system: ACHN renal
[53] = test system: HCC-2998 colon
[54] = test system: DU-145 prostate
[55] = test system: RXF 393 renal
[56] = test system: PC-3 prostate
[57] = test system: MDA-MB-435
[58] = test system: BT-549 breast

## O=C1NC(c2cccc(OCc3ccccc3)c2)Nc2ccccc21 (centres undefined)
[1]
  TGI: 4.25 µM
[2]
  TGI: < 0.0428 µM
[3]
  TGI: 470 nM
[4]
  TGI: 4.69 µM
[5]
  TGI: 2440 nM
[6]
  TGI: 17.5 µM
[7]
  TGI: > 49.6 µM
[8]
  TGI: 3.99 µM
[9]
  TGI: 0.896 µM
[10]
  TGI: 4.12 µM
[11]
  TGI: 26.3 µM
[12]
  TGI: 15.2 µM
[13]
  TGI: 1.87 µM
[14]
  TGI: > 51 µM
[15]
  TGI: 38.8 µM
[16]
  TGI: 73.9 µM
[17]
  TGI: 1.93 µM
[18]
  TGI: > 90.1 µM
[19]
  TGI: > 100 µM
[20]
  TGI: > 100 µM
[21]
  TGI: 38.8 µM
[22]
  TGI: 55 µM
[23]
  TGI: 2.64 µM
[24]
  TGI: 0.558 µM
[25]
  TGI: 0.239 µM
[26]
  TGI: 5.87 µM
[27]
  TGI: 4.68 µM
[28]
  TGI: 35 µM
[29]
  TGI: 35.6 µM
[30]
  TGI: 30.5 µM
[31]
  TGI: 50.7 µM
[32]
  TGI: 2770 nM
[33]
  TGI: > 32.8 µM
[34]
  TGI: > 85.7 µM
[35]
  TGI: > 27.1 µM
[36]
  TGI: 9.83 µM
[37]
  TGI: 0.636 µM
[38]
  TGI: > 22.7 µM
[39]
  TGI: 0.702 µM
[40]
  TGI: 0.468 µM
[41]
  TGI: 1.07 µM
[42]
  TGI: 22.9 µM
[43]
  TGI: > 75.7 µM
[44]
  TGI: > 100 µM
[45]
  TGI: 93.7 µM
[46]
  TGI: > 100 µM
[47]
  TGI: 0.708 µM
[48]
  TGI: > 100 µM
[49]
  TGI: 27.5 µM
[50]
  TGI: > 54 µM
[51]
  TGI: 30 µM
[52]
  TGI: 28.7 µM
[53]
  TGI: 0.621 µM

## C=C(C)[C@@H]1CC[C@]2(C(=O)OCCOCCOCC[P+](c3ccccc3)(c3ccccc3)c3ccccc3)CC[C@]3(C)[C@H](CC[C@@H]4[C@@]5(C)CC[C@H](OC(=O)C(Cl)Cl)C(C)(C)[C@@H]5CC[C@]43C)[C@@H]12
[27]
  GI50: 0.225 µM
  TGI: 0.734 µM
[36]
  GI50: 0.317 µM
  TGI: 1.88 µM
[40]
  GI50: 1.54 µM
  TGI: 9 µM

## Cc1cc(=O)oc2cc(OC/C=C3\CCC(=O)O3)ccc12
[1]
  GI50: 14.5 µM
  TGI: 30.9 µM
[2]
  GI50: 4.47 µM
  TGI: 32.2 µM
[54]
  GI50: 5.31 µM
  TGI: 22.9 µM
[4]
  GI50: 16.9 µM
  TGI: 34.7 µM
[5]
  GI50: 24 µM
  TGI: > 63100 nM
[6]
  GI50: 7.99 µM
  TGI: 22.9 µM
[55]
  GI50: 13.1 µM
  TGI: 31.9 µM
[7]
  GI50: 31.2 µM
  TGI: > 91.4 µM
[8]
  GI50: 3.96 µM
  TGI: 30.3 µM
[9]
  GI50: 16.8 µM
  TGI: 40.1 µM
[10]
  GI50: 59 µM
  TGI: > 100 µM
[11]
  GI50: 21.6 µM
  TGI: 58 µM
[12]
  GI50: 5.73 µM
  TGI: 27.6 µM
[13]
  GI50: 17.6 µM
  TGI: 37 µM
[14]
  GI50: 15.3 µM
  TGI: 50.2 µM
[15]
  GI50: 10.5 µM
  TGI: 44.1 µM
[16]
  GI50: 18 µM
  TGI: 47.9 µM
[17]
  GI50: 8.38 µM
  TGI: 24.6 µM
[18]
  GI50: 14.3 µM
  TGI: 35.3 µM
[19]
  GI50: 15.5 µM
  TGI: 49.2 µM
[20]
  GI50: 14.4 µM
  TGI: 29.9 µM
[21]
  GI50: 9.51 µM
  TGI: 25 µM
[22]
  GI50: 12.8 µM
  TGI: 26.3 µM
[23]
  GI50: 5.8 µM
  TGI: 20.5 µM
[24]
  GI50: 12.2 µM
  TGI: 28.8 µM
[25]
  GI50: 9.7 µM
  TGI: 29.3 µM
[26]
  GI50: 28.2 µM
  TGI: > 76 µM
[27]
  GI50: 28.7 µM
  TGI: 79.4 µM
[28]
  GI50: 13.6 µM
  TGI: 33 µM
[29]
  TGI: 7.84 µM
[30]
  GI50: 15.2 µM
  TGI: 34.9 µM
[56]
  GI50: 9.01 µM
  TGI: 34.1 µM
[31]
  GI50: 21.5 µM
  TGI: > 62.1 µM
[32]
  TGI: 11 nM
[33]
  GI50: 7.59 µM
  TGI: 26.8 µM
[34]
  GI50: 16.4 µM
  TGI: 33.6 µM
[35]
  GI50: 13.8 µM
  TGI: 28.7 µM
[36]
  GI50: 22.9 µM
  TGI: > 87.4 µM
[37]
  GI50: 7.82 µM
  TGI: 23 µM
[38]
  GI50: 17.1 µM
  TGI: 36.4 µM
[39]
  GI50: 10.6 µM
  TGI: 23.9 µM
[40]
  GI50: 23 µM
  TGI: 82.9 µM
[41]
  GI50: 3.2 µM
  TGI: 18.7 µM
[57]
  GI50: 7.23 µM
  TGI: 40.9 µM
[42]
  GI50: 19.3 µM
  TGI: > 62.7 µM
[43]
  GI50: 12.2 µM
  TGI: 27.2 µM
[44]
  GI50: 12.1 µM
  TGI: 28.4 µM
[45]
  GI50: 13.2 µM
  TGI: 28.7 µM
[46]
  GI50: 5.56 µM
  TGI: 28 µM
[47]
  GI50: 13.1 µM
  TGI: 46.1 µM
[48]
  GI50: 15.8 µM
  TGI: 37.4 µM
[49]
  GI50: 23.5 µM
  TGI: > 74.5 µM
[50]
  GI50: 21 µM
  TGI: 54.4 µM
[51]
  GI50: 17.9 µM
  TGI: 60.2 µM
[52]
  GI50: 5.05 µM
  TGI: 15.4 µM
[53]
  GI50: 16 µM
  TGI: 31.4 µM
[58]
  GI50: 15.8 µM
  TGI: 40 µM

## Nc1nc(SC2CCCCC2)nc2c1ncn2C1OC(CO)C(O)C1O (centres undefined)
[9]
  GI50: 69.8 µg/mL
[21]
  GI50: 14.8 µg/mL
[37]
  GI50: 96.6 µg/mL
